Measurements from US8729061B2, “Pyrrolidine derivatives” (Hoffmann-La Roche Inc., priority 2011, dated 2014).

Tests used:
Format in all cases: biochemical
human Cathepsin S = human Cathepsin S (Homo sapiens (Human), UniProt P25774); experiment: Cathepsin enzyme inhibition assay (fluorogenic peptide substrate), Cat S; settings: enzyme 1 nM, substrate Z-Val-Val-Arg-AMC 20 μM, pH 6.5
Outline: (§1)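 Fluorogenic cleavage assay run separately on human and mouse enzymes, each at 1 nM, in 100 mM potassium phosphate pH 6.5 with 5 mM EDTA, 5 mM DTT and 0.001% Triton X-100. Reaction started with 20 μM Z-Val-Val-Arg-AMC, or Z-Leu-Arg-AMC for Cat K; AMC read at ex 360/em 465 nm. IC50 calculated by standard methods.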

human Cat L = human Cat L (Homo sapiens (Human), UniProt P07711); experiment: Cathepsin enzyme inhibition assay (fluorogenic peptide substrate), Cat L; settings: enzyme 1 nM, substrate Z-Val-Val-Arg-AMC 20 μM, pH 6.5
Outline: as §1

human Cat K = human Cat K (Homo sapiens (Human), UniProt P43235); experiment: Cathepsin enzyme inhibition assay (fluorogenic peptide substrate), Cat K; settings: enzyme 1 nM, substrate Z-Leu-Arg-AMC 20 μM, pH 6.5
Outline: as §1

human Cat B = human Cat B (Homo sapiens (Human), UniProt P07858); experiment: Cathepsin enzyme inhibition assay (fluorogenic peptide substrate), Cat B; settings: enzyme 1 nM, substrate Z-Val-Val-Arg-AMC 20 μM, pH 6.5
Outline: as §1

Sequence of human Cathepsin S (P25774 115-331): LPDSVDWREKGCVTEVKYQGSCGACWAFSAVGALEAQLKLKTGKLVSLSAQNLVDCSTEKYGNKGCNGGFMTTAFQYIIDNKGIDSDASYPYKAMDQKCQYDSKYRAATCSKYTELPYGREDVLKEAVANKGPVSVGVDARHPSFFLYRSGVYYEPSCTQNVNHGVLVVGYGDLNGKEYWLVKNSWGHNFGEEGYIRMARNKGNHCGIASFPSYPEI
Sequence of human Cat K (P43235 115-329): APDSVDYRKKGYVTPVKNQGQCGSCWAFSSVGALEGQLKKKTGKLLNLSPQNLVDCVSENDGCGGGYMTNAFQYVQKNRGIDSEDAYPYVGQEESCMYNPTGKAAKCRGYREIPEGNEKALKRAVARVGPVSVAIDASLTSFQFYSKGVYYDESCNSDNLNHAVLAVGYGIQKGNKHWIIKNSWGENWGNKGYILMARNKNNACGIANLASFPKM
Sequence of human Cat L (P07711 114-333): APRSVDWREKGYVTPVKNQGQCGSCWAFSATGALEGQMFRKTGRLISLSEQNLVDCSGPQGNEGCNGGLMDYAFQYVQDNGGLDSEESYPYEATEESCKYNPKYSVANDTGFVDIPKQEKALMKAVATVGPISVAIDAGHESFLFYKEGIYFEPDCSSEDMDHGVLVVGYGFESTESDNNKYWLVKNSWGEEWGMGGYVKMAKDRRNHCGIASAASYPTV

IC50 (human Cathepsin S)	IC50 (human Cat L)	IC50 (human Cat K)	IC50 (human Cat B)	SMILES
3.08 nM	13 nM	159 nM	172 nM	CC[C@H](NC(=O)[C@@H]1C[C@@H](S(=O)(=O)c2ccccc2Cl)CN1C(=O)C1(c2ccc(Cl)cc2)CC1)C(=O)C(=O)NCCc1ccc2ccccc2c1 [Example 51, (2S,4R)-1-(1-(4-chlorophenyl)cyclopropanecarbonyl)-4-(2-chlorophenylsulfonyl)-N—((S)-1-(2-(naphthalen-2-yl)ethylamino)-1,2-dioxopentan-3-yl)pyrrolidine-2-carboxamide]
1.96 nM	9.4 nM	317 nM	386 nM	CC[C@H](NC(=O)[C@@H]1C[C@@H](S(=O)(=O)c2ccccc2Cl)CN1C(=O)C1(c2ccc(Cl)cc2)CC1)C(=O)C(=O)NCc1cccc2ccccc12 [Example 52, (2S,4R)-1-(1-(4-chlorophenyl)cyclopropanecarbonyl)-4-(2-chlorophenylsulfonyl)-N—((S)-1-(naphthalen-1-ylmethylamino)-1,2-dioxopentan-3-yl)pyrrolidine-2-carboxamide]
0.676 nM	1.7 nM	39.3 nM	188 nM	CC[C@H](NC(=O)[C@@H]1C[C@@H](S(=O)(=O)c2ccccc2Cl)CN1C(=O)C1(c2ccc(Cl)cc2)CC1)C(=O)C(=O)NC1CCOCC1 [Example 53, (2S,4R)-1-(1-(4-chlorophenyl)cyclopropanecarbonyl)-4-(2-chlorophenylsulfonyl)-N—((S)-1,2-dioxo-1-(tetrahydro-2H-pyran-4-ylamino)pentan-3-yl)pyrrolidine-2-carboxamide]
0.63 nM	2.6 nM	82 nM	85.4 nM	CC[C@H](NC(=O)[C@@H]1C[C@@H](S(=O)(=O)c2ccccc2Cl)CN1C(=O)C1(c2ccc(Cl)cc2)CC1)C(=O)C(=O)NCCOC [Example 54, (2S,4R)-1-(1-(4-chlorophenyl)cyclopropanecarbonyl)-4-(2-chlorophenylsulfonyl)-N—((S)-1-(2-methoxyethylamino)-1,2-dioxopentan-3-yl)pyrrolidine-2-carboxamide]
0.876 nM	2.6 nM	56.5 nM	61.6 nM	CC[C@H](NC(=O)[C@@H]1C[C@@H](S(=O)(=O)c2ccccc2Cl)CN1C(=O)C1(c2ccc(Cl)cc2)CC1)C(=O)C(=O)NCC(C)C [Example 55, (2S,4R)-1-(1-(4-chlorophenyl)cyclopropanecarbonyl)-4-(2-chlorophenylsulfonyl)-N—((S)-1-(isobutylamino)-1,2-dioxopentan-3-yl)pyrrolidine-2-carboxamide]
2.57 nM	20.6 nM	65.4 nM	101 nM	CC[C@H](NC(=O)[C@@H]1C[C@@H](S(=O)(=O)c2ccc(N3CCOCC3)cc2Cl)CN1C(=O)C1(c2ccc(Cl)cc2)CC1)C(=O)C(=O)NC1CC1 [Example 56, (2S,4R)-4-(2-chloro-4-morpholinophenylsulfonyl)-1-(1-(4-chlorophenyl)cyclopropanecarbonyl)-N—((S)-1-(cyclopropylamino)-1,2-dioxopentan-3-yl)pyrrolidine-2-carboxamide]
3.33 nM	24.9 nM	75 nM	93.2 nM	CCC[C@H](NC(=O)[C@@H]1C[C@@H](S(=O)(=O)c2ccc(N3CCOCC3)cc2Cl)CN1C(=O)C1(c2ccc(Cl)cc2)CC1)C(=O)C(=O)NC1CC1 [Example 57, (2S,4R)-4-(2-chloro-4-morpholinophenylsulfonyl)-1-(1-(4-chlorophenyl)cyclopropanecarbonyl)-N—((S)-1-(cyclopropylamino)-1,2-dioxohexan-3-yl)pyrrolidine-2-carboxamide]
2.61 nM	6.4 nM	141 nM	518 nM	CC(C)C[C@H](NC(=O)[C@@H]1C[C@@H](S(=O)(=O)c2ccccc2Cl)CN1C(=O)C1(c2ncc(Cl)cc2F)CC1)C(=O)C(=O)NC1CC1 [Example 59, (2S,4R)-1-(1-(5-chloro-3-fluoropyridin-2-yl)cyclopropanecarbonyl)-4-(2-chlorophenylsulfonyl)-N—((S)-1-(cyclopropylamino)-5-methyl-1,2-dioxohexan-3-yl)pyrrolidine-2-carboxamide]
